The conditions of data set [1]: in vivo; cited from earlier work.
In data set [2] the test system is patients with dyskinetic movements (TD, tics). As to the kind of experiment: Inventor's overall clinical experience, cases 1-6. The data set is classed as in vivo, human. The source says: The ratio of acamprosate to magnesium can be varied to optimize the therapeutic synergy of the two ingredients. […] At typical therapeutic dosages of acetylhomotaurinate, the amount of magnesium is too low to have therapeutically-relevant effects on glutamate transmission. In my experience, I have had excellent therapeutic results from combining a 2 gram daily dosage of acamprosate with 1 gram of elemental magnesium, given as a salt or chelate. […] Allowing for variations in individual response, and variations in the intestinal absorption of both acamprosate and magnesium, I assert that the optimal ratio of mg:acetylhomotaurinate for an individual patient will be somewhere between 1:6 and 1:1. […] Although magnesium N-acetylhomotaurinate may be slightly more efficacious than calcium N-acetylhomotaurinate for treatment of tic disorders, in the present application we are effectively increasing the magnesium content of acamprosate and related compounds by administering magnesium ion (as a salt or chelate) in combination with a salt of N-acetylhomotaurinate, because there is a significant benefit to administering a higher ratio of magnesium to acamprosate than is present in the magnesium salt of acamprosate.
Relief of symptoms began within 48 hours of administration of acamprosate, and, if a patient discontinued acamprosate, symptoms returned immediately. […]

A further data set has as its system 3,338 patients. Conditions: alcoholism treatment; cited from earlier work.
Data set [3] relates to person two with Parkinson's disease and peak-dose dyskinesia. As to the kind of experiment: Case Report 3: peak-dose dyskinesia of treated Parkinson's disease. The data set is classed as in vivo, human. The following applies: Case 3; for effect on peak-dose dyskinesia: added to antiparkinson regime, memantine 10 mg three times a day, acamprosate 666 mg three times, then 333 mg four times a day, baclofen 30 and 60 mg daily, magnesium 300 mg three times a day. How it is done: The patient's Parkinson's disease was treated using levodopa/carbidopa and bromocriptine.
Prior to beginning treatment with acamprosate, the patient was on an antiparkinson treatment regime that consisted of 1 mg of pergolide three times a day, 5 mg of selegiline twice a day, and a combination of levodopa/carbidopa consisting of 550-600 mg of levodopa and 125-150 mg of carbidopa administered in divided doses.
The patient began acamprosate as an addition to the antiparkinson regime described above. Initially, the patient received 666 mg of acamprosate administered three times a day. Two weeks later the regime was adjusted such that the patient received 333 mg of acamprosate four times a day, taking one 333 mg pill with each daytime dose of 100 mg levodopa and 25 mg carbidopa. The patient's bedtime does of controlled-release levodopa-carbidopa (200 mg of levodopa and 50 mg of carbidopa) was continued, but were given without acamprosate. […] To confirm that the patient's improvement was due to the administration of acamprosate, the patient was taken off the acamprosate. […] During the period off acamprosate, an attempt was made to replace acamprosate with baclofen (a GABA-receptor agonist) at a total daily dose of 30 mg, and then with baclofen at a total daily dose of 60 mg.
Several months later, magnesium (300 mg elemental magnesium, as a mixed chelate), was added to the regimen. It was taken three times a day, together with a one of the patient's regular doses of levodopa/carbidopa. […] To establish whether the improvement was due to magnesium, the magnesium was stopped after several weeks.

Data set [4] has as its system person with extremely severe tardive dyskinesia and dystonia. Nature of the data set: Case Report 4: patient self-report of TD treatment effects (weekly log). It counts as in vivo, human. Conditions: for Memory: Memory and concentration / Well-being: General well being: 10 is best; for Side effects: 10 is none; for Balance: Difficulty maintaining balance / Face/tongue: Severity of face and tongue movements / Sweating / Trunk: Severity of trunk movements: 10 is worst. The source says:
A person had extremely severe tardive dyskinesia and dystonia, as a result of over 15 years of treatment of bipolar disorder with lithium and an assortment of neuroleptics. Their involuntary movements consisted of forced extension of the trunk, torsion of the lower legs, plantar flexion of the left foot, chorea of both arms, writhing of the tongue and grimacing. In addition, they had profuse sweating associated with the involuntary movements. To sit still in a chair, they had to forcefully grip both arms. In the chair, forced extension of the trunk practically lifted them out of the chair. Their trunk and leg movements led to impaired balance, with a staggering gait and frequent near-falls. The continual severe movements were associated with impairment in concentration, which made their work less efficient. By virtue of talent and intelligence, however, they were able to work competitively as a software engineer. Because their bipolar disorder remained an active problem, continued neurolepric treatment was necessary to maintain their mental health. They were maintained on lithium carbonate 300 mg three times a day, and risperidone 4 mg per day.
Their movement disorder had been treated with benzodiazepines, anticholinergics, and dopamine agonists, all without meaningful benefit. They were then treated with acamprosate, first at a dosage of 333 mg three times a day, and then at a dosage of 666 mg three times a day. Acamprosate therapy was then augmented with magnesium sulfate, 300 mg three times a day.
The patient maintained a weekly log of symptoms, which is reproduced here as Table 4. […] For several of their symptoms—trunk movement, balance, and sweating 666 mg of acamprosate three times a day of acamprosate was more efficacious than 333 mg three • 2) The addition of magnesium was associated with further improvement in several symptoms, i.e., movements of the face and tongue, neck and limbs; • 3) Benefits of acamprosate increased with continued therapy; • 4) Mental function, as indicated by subjective memory, improved along with the involuntary movements; • 5) The addition of memantine aggravated the involuntary movements.

Data set [5] has as its system person two with long-standing TD. Nature of the data set: Figural Fluency (Case 1). Conditions: ON drug. It counts as in vivo, human. The source says: (§1) The following tables report on the results of the neuropsychological tests (Drug I is memantine and Drug II is acamprosate): […]
Data set [6] has the same test system. Nature of the data set: Finger Tapping (Case 1). It counts as in vivo, human. Conditions: ON drug, higher score better.
From the text: as §1

Data set [7] has the same test system. As to the kind of experiment: Digit Symbol (Case 1). It counts as in vivo, human. Conditions: ON drug, higher score better.
From the text: as §1

Where [8] appears, read: week 1, regimen 1: 333 mg three times a day.
The mark [9] stands for this setting: week 2, regimen 2: 666 mg three times a day.

Here are results for two molecules from US7745493B2, “Methods of treating tardive dyskinesia and other movement disorders” (priority 1998, dated 2010).

Structures are written as SMILES. Some results are limits rather than exact numbers.

In the case of `CC(=O)NCCCS(=O)(=O)O` [acamprosate, calcium N-acetylhomotaurinate], the “absorption from the GI tract” value in data set [1] is reported as “irregularly absorbed”. In data set [2], the “time to beginning of relief of symptoms” value was ≤ 48 h. For the same molecule, the “side effects in controlled trials” value with 3,338 patients is recorded as “no severe medical or neurological side effects”. Besides, in data set [3], the “effect on levodopa/carbidopa treatment of hypokinesia and rigidity” value is “no decrease in the efficacy”; the “periods without dyskinesia following each dose” value is on record as “up to two hours”; the “time to return of dyskinetic movements after stopping” value is reported as “Within one day”; the “effect on peak-dose dyskinesia” value is “reduced from moderate to mild intensity”. In data set [4] (setting [8]), the Limbs is reported as 6; the Neck is on record as 7; the “Memory: Memory and concentration” value was 9; the “Well-being: General well being” value was determined as 8. Moreover, in data set [4] (setting [8]), the Side effects was 7; the “Balance: Difficulty maintaining balance” value amounted to 7; the “Face/tongue: Severity of face and tongue movements” value is on record as 5; the Sweating turned out to be 8. The “Trunk: Severity of trunk movements” value in data set [4] (setting [8]) is recorded as 8. Further, in data set [4] (setting [9]), the Limbs was found to be 7; the Neck was 7; the “Memory: Memory and concentration” value is 9; the “Well-being: General well being” value worked out at 8. Also, in data set [4] (setting [9]), the Side effects is given as 7; the “Balance: Difficulty maintaining balance” value was 5; the “Face/tongue: Severity of face and tongue movements” value is on record as 7; the Sweating was found to be 5. Further, the “Trunk: Severity of trunk movements” value in data set [4] (setting [9]) stood at 6.
Consider `CC12CC3CC(C)(C1)CC(N)(C3)C2` [memantine], for which the “Figural Fluency Unique Designs” value in data set [5] (higher score better) is 124. Besides, the “Figural Fluency Perseverations” value in data set [5] (lower score better) came to 8. In addition, in data set [6], the “Finger Tapping DH” value is given as “DH = 59.3” and the “Finger Tapping NDH” value is given as “NDH = 48.5”. In addition, the “effect on peak-dose dyskinesia” value in data set [3] is on record as “reduced their dyskinetic movements from severe to mild-to-moderate”. Also, the “Digit Symbol” value in data set [7] is on record as 34.
